This is an account of results in patent publication US20080132505A1 (Glaxo Group Limited, priority 2004, published 2008).

The target in the assay is human cannabinoid CB2 receptor (Homo sapiens, UniProt P34972). The assay can be described thus: Cannabinoid CB2 receptor agonist activity (yeast reporter assay, FDGlu fluorescence). Type of assay: cell-based. The conditions noted are these: for EC50: EC50 value at the cloned human cannabinoid CB2 receptor; for Emax: read-out: efficacy value (Emax relative to HU210) at the cloned human cannabinoid CB2 receptor. Summed up: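 Agonist-driven growth was read as fluorescein fluorescence (ex 485, em 535 nm) from FDGlu cleavage after 24 h at 30 °C, using yeast strain MMY23 carrying human CB2 and chimeric Gpa1/Gαi3. Medium had 10 mM 3-aminotriazole, pH 7.0; four-parameter fits gave EC50, with Emax and EMR versus HU210.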
For orientation: A reporter such as luciferase makes a cellular process visible.

Chain of human cannabinoid CB2 receptor (P34972 whole entry): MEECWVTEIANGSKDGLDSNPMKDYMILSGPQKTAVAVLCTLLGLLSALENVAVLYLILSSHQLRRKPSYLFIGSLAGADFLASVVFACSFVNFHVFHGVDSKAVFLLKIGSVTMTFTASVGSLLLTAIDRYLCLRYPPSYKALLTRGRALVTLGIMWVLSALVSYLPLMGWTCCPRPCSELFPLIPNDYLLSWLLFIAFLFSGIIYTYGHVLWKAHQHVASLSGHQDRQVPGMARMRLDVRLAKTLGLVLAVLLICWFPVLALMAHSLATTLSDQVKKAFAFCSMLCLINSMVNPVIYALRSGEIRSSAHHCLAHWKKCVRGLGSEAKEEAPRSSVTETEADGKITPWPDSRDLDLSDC

The EC50 is the concentration at which the effect is half-maximal. Low readings indicate higher potency in that assay, high ones lower potency in that assay. As usually defined, the Emax is the greatest response seen or fitted, relative to the assay's reference. On to `N#Cc1c(Cl)cccc1Nc1ncc(C(=O)NCC2CCOCC2)c(C(F)(F)F)n1` [Example 109, 2-(3-Chloro-2-cyano-phenylamino)-4-tri-fluoromethyl-pyrimidine-5-carboxylic acid (tetrahydropyran-4-ylmethyl)-amide], for which the half-maximal effective concentration (EC50) is 300 to 1000 nM and the maximal response (Emax) is over 50%.
As for `O=C(NCc1ccc(F)c(F)c1)c1cnc(Nc2cccc(Cl)c2)nc1C(F)(F)F` [Example 346, 2-(3-Chloro-phenylamino)-4-trifluoromethyl-pyrimidine-5-carboxylic acid 3,4-difluoro-benzylamide], the concentration for a half-maximal effect (EC50) lay in the range of 20 to 300 nM.
On to `O=C(NC1CCC1)c1cnc(Nc2ccc(Cl)c(Cl)c2)nc1C(F)(F)F` [Example 30, 2-(3,4-Dichloro-phenylamino)-4-trifluoromethyl-pyrimidine-5-carboxylic acid cyclobutylamide], for which the 50% effective concentration (EC50) lay within 300 to 1000 nM and the Emax was over 50%.
Taken in the same sequence, the figures for `O=C(NCC1CCC1)c1cnc(Nc2ccc(Br)cc2F)nc1C(F)(F)F` [Example 229, 2-(2-Fluoro-4-bromo-phenylamino)-4-trifluoromethyl-pyrimidine-5-carboxylic acid cyclobutylmethyl-amide] were 20 to 300 nM and over 50%.
Take `O=C(NCc1ccncc1)c1cnc(Nc2cc(Cl)ccc2Cl)nc1C(F)(F)F` [Example 284, 2-(2,5-Dichlorophenylamino)-4-trifluoromethylpyrimidine-5-carboxylic acid (pyridin-4-ylmethyl)amide]: the concentration giving a half-maximal response (EC50) was in the range of 20 to 300 nM.
With `CC(C)Cc1ccc(CNC(=O)c2cnc(Nc3cccc(Cl)c3)nc2C(F)(F)F)cc1` [Example 302, 2-(3-Chloro-phenylamino)-4-trifluoromethyl-pyrimidine-5-carboxylic acid 4-isobutyl-benzylamide], the EC50 lay in the range of 300 to 1000 nM and the Emax was over 50%.
`O=C(NCc1ccccc1)c1cnc(Nc2cccc(Cl)c2)nc1C(F)(F)F` [Example 266, 2-(3-Chlorophenylamino)-4-trifluoromethylpyrimidine-5-carboxylic acid benzyl-amide]: the EC50 lay in the range of 20 to 300 nM and the Emax was over 50%.
Taken in the same sequence, the figures for `O=C(NCC1CCOCC1)c1cnc(Nc2ccc(C(F)(F)F)c(F)c2)nc1C(F)(F)F` [Example 218, 2-(4-Trifluoromethyl-3-fluoro-phenylamino)-4-trifluoromethyl-pyrimidine-5-carboxylic acid (tetrahydro-pyran-4-ylmethyl)-amide] were 20 to 300 nM and over 50%.
Consider `O=C(c1cnc(Nc2cccc(Cl)c2)nc1C(F)(F)F)N1CCCCC1` [Example 1, 1-[2-(3-Chlorophenylamino)-4-trifluoromethylpyrimidin-5-yl]-1-piperidin-1-ylmethanone], for which the 50% effective concentration (EC50) was 20 to 300 nM and the Emax is over 50%.
For the molecule `COc1cccc(Nc2ncc(C(=O)NCc3ccncc3)c(C(F)(F)F)n2)c1` [Example 352, 2-(3-Methoxy-phenylamino)-4-trifluoromethyl-pyrimidine-5-carboxylic acid (pyridin-4-ylmethyl)-amide], the EC50 was in the range of 20 to 300 nM.
As for `O=C(NCc1ccccc1)c1cnc(Nc2cccc(F)c2)nc1C(F)(F)F` [Example 277, 2-(3-Fluorophenylamino)-4-trifluoromethylpyrimidine-5-carboxylic acid benzyl-amide], the EC50 was in the range of 20 to 300 nM and the maximum response (Emax) is over 50%.
`CN(Cc1ccccc1)C(=O)c1cnc(Nc2cccc(Cl)c2Cl)nc1C(F)(F)F` [Example 272, 2-(2,3-Dichlorophenylamino)-4-trifluoromethylpyrimidine-5-carboxylic acid N-benzyl-N-methylamide] registered an EC50 of 20 to 300 nM.
In the case of `O=C(c1cnc(Nc2ccc(Cl)c(Cl)c2)nc1C(F)(F)F)N1CCOCC1` [Example 68, 1-[2-(3,4-Dichlorophenylamino)-4-trifluoromethylpyrimidin-5-yl]-1-(morpholin-4-yl)-methanone], the EC50 fell in the range of 20 to 300 nM and the Emax was over 50%.
In the case of `Cc1cc(Cl)ccc1Nc1ncc(C(=O)NCC2CCOCC2)c(C(F)(F)F)n1` [Example 112, 2-(4-Chloro-2-methyl-phenylamino)-4-tri-fluoromethyl-pyrimidine-5-carboxylic acid (tetrahydropyran-4-ylmethyl)-amide], the EC50 is 300 to 1000 nM and the Emax is over 50%.
Taken in the same sequence, the figures for `O=C(NCC1CCCCC1)c1cnc(Nc2cccc(Br)c2)nc1C(F)(F)F` [Example 20, 2-(3-Bromophenylamino)-4-trifluoromethylpyrimidine-5-carboxylic acid cyclohexylmethyl-amide] were 20 to 300 nM and over 50%.
`O=C(NCc1ccnc(F)c1)c1cnc(Nc2c(Cl)cccc2Cl)nc1C(F)(F)F` [Example 358, 2-(2,6-Dichloro-phenylamino)-4-trifluoromethyl-pyrimidine-5-carboxylic acid (2-fluoro-pyridin-4-ylmethyl)-amide] returned an EC50 of 20 to 300 nM.
On the same count and under the same terms, in the case of `O=C(NCc1ccncc1)c1cnc(Nc2cccc(Br)c2)nc1C(F)(F)F` [Example 286, 2-(3-Bromophenylamino)-4-trifluoromethylpyrimidine-5-carboxylic acid (pyridin-4-ylmethyl)amide] it was 20 to 300 nM; in that of `O=C(NCc1ccncc1)c1cnc(Nc2cccc(F)c2)nc1C(F)(F)F` [Example 285, 2-(3-Fluorophenylamino)-4-trifluoromethylpyrimidine-5-carboxylic acid (pyridin-4-ylmethyl)amide], 20 to 300 nM.
`O=C(NCC1CCCCC1)c1cnc(Nc2ccc(Cl)cc2F)nc1C(F)(F)F` [Example 226, 2-(2-Fluoro-4-chloro-phenylamino)-4-trifluoromethyl-pyrimidine-5-carboxylic acid cyclohexylmethyl-amide]: the EC50 fell in the range of 20 to 300 nM and the Emax was over 50%.
Taken in the same sequence, the figures for `O=C(NCC1CCOCC1)c1cnc(Nc2ccc(Br)cc2Cl)nc1C(F)(F)F` [Example 234, 2-(2-Chloro-4-bromo-phenylamino)-4-trifluoromethyl-pyrimidine-5-carboxylic acid (tetrahydro-pyran-4-ylmethyl)-amide] were 20 to 300 nM and over 50%.
Taken in the same sequence, the figures for `Cc1ccc(Nc2ncc(C(=O)NCC3CCOCC3)c(C(F)(F)F)n2)cc1Cl` [Example 184, 2-(3-Chloro-4-methylphenylamino)-4-trifluoromethyl-pyrimidine-5-carboxylic acid (tetrahydropyran-4-ylmethyl)-amide] were 20 to 300 nM and over 50%.
Taken in the same sequence, the figures for `O=C(NCC1CCC1)c1cnc(Nc2ccc(F)cc2C(F)(F)F)nc1C(F)(F)F` [Example 101, 2-(2-Trifluoromethyl-4-fluorophenylamino)-4-trifluoromethyl-pyrimidine-5-carboxylic acid cyclobutylmethyl-amide] were 300 to 1000 nM and over 50%.
As for `O=C(NC1CCCC1)c1cnc(Nc2ccc(Cl)c(Cl)c2)nc1C(F)(F)F` [Example 74, 3,4-Dichlorophenylamino-4-trifluoromethyl-pyrimidine-5-carboxylic acid cyclopentylamide], the EC50 was 300 to 1000 nM and the maximal response (Emax) was over 50%.
For `O=C(NCC1CCOCC1)c1cnc(Nc2c(Cl)cccc2Cl)nc1C(F)(F)F` [Example 55, 2-(2,6-Dichlorophenylamino)-4-trifluoromethyl-pyrimidine-5-carboxylic acid (tetrahydro-pyran-4-ylmethyl)-amide], the concentration for a half-maximal effect (EC50) fell in the range of 20 to 300 nM and the Emax was over 50%.
Turning to `O=C(NCC1CCOCC1)c1cnc(Nc2cc(F)cc(F)c2)nc1C(F)(F)F` [Example 214, 2-(3,5-Difluorophenylamino)-4-trifluoromethyl-pyrimidine-5-carboxylic acid (tetrahydro-pyran-4-ylmethyl)-amide], the EC50 lay within 20 to 300 nM and the maximal response (Emax) is over 50%.
Regarding `Cc1cc(Cl)ccc1Nc1ncc(C(=O)NCC2CCCCC2)c(C(F)(F)F)n1` [Example 94, 2-(4-Chloro-2-methyl-phenylamino)-4-trifluoromethyl-pyrimidine-5-carboxylic acid cyclohexylmethyl-amide], the EC50 was in the range of 300 to 1000 nM and the Emax was over 50%.
For `O=C(NCC1CCC1)c1cnc(Nc2ccc(Cl)cc2Br)nc1C(F)(F)F` [Example 230, 2-(2-Bromo-4-chloro-phenylamino)-4-trifluoromethyl-pyrimidine-5-carboxylic acid cyclobutylmethyl-amide], the EC50 is 20 to 300 nM and the Emax was over 50%.
Taken in the same sequence, the figures for `O=C(NCC1CCCCC1)c1cnc(Nc2ccc(Cl)cc2C(F)(F)F)nc1C(F)(F)F` [Example 170, 2-(4-Chloro-2-trifluoromethylphenylamino)-4-trifluoromethyl-pyrimidine-5-carboxylic acid cyclohexylmethyl-amide] were 20 to 300 nM and over 50%.
`O=C(NCC1CCCC1)c1cnc(Nc2ccc(Cl)c(Cl)c2)nc1C(F)(F)F` [Example 44, 2-(3,4-Dichlorophenylamino)-4-trifluoromethylpyrimidine-5-carboxylic acid cyclopentylmethyl-amide]: the EC50 was 20 to 300 nM and the Emax is over 50%.
`O=C(NCc1ccnc(F)c1)c1cnc(Nc2cc(Cl)cc(Cl)c2)nc1C(F)(F)F` [Example 356, 2-(3,5-Dichloro-phenylamino)-4-trifluoromethyl-pyrimidine-5-carboxylic acid (2-fluoro-pyridin-4-ylmethyl)-amide] showed an EC50 of 20 to 300 nM.
In the case of `O=C(NCC1CCC1)c1cnc(Nc2cccc(Cl)c2)nc1C(F)(F)F` [Example 54, 2-(3-Chlorophenylamino)-4-trifluoromethylpyrimidine-5-carboxylic acid cyclobutylmethyl-amide], the EC50 lay within 20 to 300 nM and the Emax is over 50%.
